From patent US20160310454A1, “LIVER X RECEPTOR AGONISTS IN THE TREATMENT OF EMPHYSEMA” (priority 2013, published 2016)
Entries after “also recorded” stand apart in the source; their conditions may differ.

Columns and labels:
[1] = test system: human peripheral blood monocytes differentiated to macrophages, 5% CSE; assay: Human monocyte-derived macrophages treated with 5% CSE with or without LXR agonist; assay type: cell-based; settings: LXR agonist 3 μM
Text: FIG. 21. Downregulation of ABC transporters in Chronic Obstructive Pulmonary Disease (COPD) as potential therapeutic target with LXR agonist. (A.) (Left) mRNA expression analysis of ABCA1 G1 in lungs of patients with moderate (after lung volume reduction) and severe COPD (after lung transplantation) and (Right) mRNA expression analysis of ABCA1/G1 in lungs of patients with moderate and severe COPD (n=7). (B.) mRNA analysis of ABCA1, ABCG1, MMP9, (C.) MMP-2 and 9 activity assayed by gelatin zymography in human peripheral blood monocytes differentiated to macrophages in vitro by 3 days treatment with M-CSF (10Ong/m1). After differentiation process human macrophages were treated with 5% CSE with or without LXR agonist (T0901317-Cayman) treatment in 3 μM concentration. β-Actin was used as a housekeeping gene control for RT-PCR. Values are presented as statistically significant when *p<0.05, **p<0.01, ***p<0.001 when compared to controls and #p<0.05 compared Co LXR treated human macrophages.
To prepare cigarette (CSE), the smoke from one cigarette (1.1 mg of nicotine, 15 mg of tar) was passed through 25 mls of phosphate buffered saline (PBS) (Mercer et al., 2004). The pH of the extracted solution was adjusted to 7.4 and then filtered (Mercer et al., 2004). CSE was added to the media at concentrations up to 5% (vol/vol) (Mercer et al., 2004).

[2] = test system: mice exposed to cigarette smoke for 10 days; assay: Acute 10 day cigarette smoke exposure model with LXR agonist IP; assay type: in vivo, mouse
Procedure: Mice were chronically exposed to smoke in a specially designed chamber (Teague Enterprise, CA). 8 weeks old mice were smoke-exposed for 5 hours a day, 5 days a week for 10 days and 5 months. The total particulate matter (TPM) within the smoking chamber was regulated so that the mice receive a TPM of 100 mg/m^3. TPM was determined by a gravimetric analysis of filter samples taken during the exposure period. Mice (C57BL/6, AKR/J strain) were smoke exposed for 10 days and 5 months and compared to room air exposed controls.
The BAL fluid was collected by perfusing the lungs with 2 ml of phosphate buffered saline (PBS). The samples were then centrifuged to pellet down the cells and re-suspended in 300 μl of PBS. To obtain the total cell count, cells were counted using a hematocytometer for which, 10 μl of the sample was utilized. To obtain the differential cell count, the slides were prepared using a cytopsin. 150 μl of sample was taken to prepare slides. These slides were stained using Hematoxylin and Eosin (H&E) and a number of regular and foamy like macrophages and lymphocytes counted under the microscope. A foamy like phenotype (Hirama et al., 2007) was identified by examining the sequential increase in macrophage size. Lipid staining was not performed.
Total RNA was extracted from specimens of lung tissue 0.3 cm^3 in size with the use of the RNeasy kit (Qiagen, Germantown, Md.) (Goldklang et al., 2012). The RNA was then further processed to obtain cDNA, which was used for Real Time (RT) PCR analysis. TaqMan gene expression assays (Applied Biosystems, Carlsbad, Calif.) were performed to assess gene-transcript levels with the use of an ABI Prism 7900HT Sequence Detection System (Applera, Foster City, Calif.) (Goldklang et al., 2012). The following primers were used to check the respective gene expression: ABCA1 (Hs01059118_m1), ABCG1 (Hs00245154_m1), MMP-9 (Mm00442991_m1), IL-1β (Mm00434227_g1), TNF-α (Mm00443260_g1) and GAPDH (4352932E) from TaqMan Gene Expression Assays, Applied Biosystems, CA. β-actin was used as a control since it is a housekeeping gene.
To determine if the mechanisms identified in vitro contributed to changes in smoke induced lung inflammation in vivo, cigarette smoke studies were performed in mice. The treatment of mice exposed to cigarette smoke in an acute 10 day model with 25 mg/kg of intraperitoneal (IP) injections of an LXR agonist daily during the last 4 days of exposure was examined. […] Treatment with the LXR agonist was capable of blocking the already established inflammation and decreased the total inflammatory cell counts (FIG. 15A.). Furthermore, the cigarette smoke induced TNFα protein expression in the BAL was abrogated in mice treated with the LXR agonist (FIG. 15B.). […] Most importantly, cigarette smoke induced MMP-9 expression and activity in the BAL were inhibited by the treatment with the LXR agonist (FIG. 15C-D.), which correlated with inhibition of inflammation and the inflammatory driven increase in TNFα.

[3] = 25 mg/kg IP, 10 days smoke exposure, Luminex
[4] = 25 mg/kg IP, 10 days smoke exposure, listed as LXR agonist

## O=S(=O)(c1ccccc1)N(CC(F)(F)F)c1ccc(C(O)(C(F)(F)F)C(F)(F)F)cc1 [T0901317, N-(2,2,2-trifluoroethyl)-N-[4-[2,2,2-trifluoro-1-hydroxy-1-(trifluoromethyl)ethyl]phenyl]-benzenesulfonamide]
[1]
  ABC transporter levels (ABCA1, ABCG1 mRNA): restored
  CSE increased MMP-9 expression and activity: inhibited
[2]; 25 mg/kg IP daily, last 4 days of 10 day smoke exposure, listed as LXR agonist
  level of ABCA1 in BAL (alveolar macrophages): re-expression; also recorded: successfully increased
[2]; 25 mg/kg IP, 10 days smoke exposure
  pulmonary inflammation: total inflammatory cell counts in BAL: resolve
[2]; [3]
  cigarette smoke induced TNFα protein expression in the BAL: abrogated
  smoke induced increase in IL-1β, IL-17, IFNγ and MCP-1 in the lung tissue: inhibited
[2]; [4]
  cigarette smoke induced MMP-9 expression and activity in the BAL: inhibition; also recorded: inhibited
  mRNA levels of TNFα in BAL alveolar macrophages: inhibition; also recorded: decreased
  pulmonary inflammation: total inflammatory cell counts in BAL: significantly blocked; also recorded: decreased
